In patent US20240148745A1, “COMPOUNDS FOR USE IN PROGRESSIVE MULTIPLE SCLEROSIS” (FONDAZIONE CENTRO SAN RAFFAELE, priority 2021, published 2024):
Counter-ions that a name gives are not always drawn.

Assays:
[1] = system: murine cortical neurons (14 DIV); experiment: NMDA-mediated neuroprotective assay (CCK8 viability); type: cell-based, mouse; details: 1 μM, 3 h pre-treatment, NMDA 8 μM 24 h, p<0.05
Description: To assess neuroprotective activity of 160 selected non-toxic compounds on primary murine cortical neurons, obtained as described in the previous paragraph, ([…]), cultures were pre-treated with 1 μM compounds for either 3 or 24 hours, followed by 24 hours chronic stimulation with NMDA (8 μM) to induce neuronal damage. Each test plate included: a negative control (untreated), vehicle-treated control (0.02% vol/vol DMSO), a positive neurotoxic control—staurosporine 0.1 μM, a stressor—NMDA 8 μM, a positive neuroprotective control—NAC 300 μM, and a combination of stressor +neuroprotective molecule (NMDA+NAC). Cell viability was measured with Cell Counting Kit-8 assay compared to NMDA-treated control.
The potential neuroprotective activity of 160 selected non-toxic compounds was evaluated on murine cortical neurons (14 DIV) with either 3 h (FIG. 13) or 24 h compounds pre-treatment (FIG. 14). In assay with 3 h pre-treatment, 17 compounds were identified as potential NMDA-neuroprotective hits (marked with black asterisk in FIG. 13, stat. significant at p<0.05, Kruskal-Wallis test with post-hoc two-stage linear step-up procedure of Benjamini, Krieger and Yekutieli multiple comparison correction).

[2] = system: rat oligodendrocyte progenitor CG4 line; experiment: Differentiation assay on rat oligodendrocyte progenitor CG4 line (HCS, mCherry+); type: cell-based; details: secondary screen of 49 selected compounds, 1 μM, 5 days
Source text: Primary validation on CG4 line toxicity and differentiation. An innovative OPC line was developed for fast and reliable high content screening (HCS) of small compounds inducing oligodendrocyte differentiation. The line was genetically engineered by lentiviral transduction of rat CG4 cells (PubMed=1613821; DOI=10.1002/jnr.490310125; Louis J. C., Magal E., Muir D., Manthorpe M., Varon S.; CG-4, a new bipotential glial cell line from rat brain, is capable of differentiating in vitro into either mature oligodendrocytes or type-2 astrocytes. J. Neurosci. Res. 31:193-204(1992) to express mCherry fluorescent reporter (Evercooren, Anne & Avellana-Adalid, V. & Vitry, Sandrine & Nait-Oumesmar, Brahim & Lachapelle, Francois. (1997). Expansion of Oligodendrocyte Progenitors for Myelin Repair. 10.1007/978-1-4615-5949-8_21) in mature oligodendrocytes only, and EGFP at all stage of the oligodendroglial lineage: both the generation of mature oligodendrocytes (wmNl-mCherry) and the morphological changes associated with differentiation (CMV-EGFP) can be therefore monitored in a single assay. mCherry expression occurred only in O4+/GalC+ differentiated oligodendrocytes and GFP was ubiquitously expressed at all developmental stages. The line so obtained was validated using compounds with well-established effects on oligodendrocyte differentiation (cAMP and T3). Cell-based assay was standardized on the HCS platform (ArrayScanXTI, Brain and Spine Institute (Paris), validating the pro-differentiation effects of clemastine^27 and 9cis-retinoic acid.^28 For HCS validation of 274 compounds identified through in silico screen, double-fluo CG4 line cells were plated in 96 well-plates, 6500 cells/cm^2 and left for 24 h in proliferation. The other day, compounds were added (1 μM) for next 5 days of differentiation, with ⅔ medium changed after 3 days. 9-cis Retinoic Acid (9cis-RA; […]) served as a positive control, negative controls were basal (N1) medium and vehicle (basal+0.1% DMSO). Each compound was tested in triplicate and were imaged with ArrayScanXTI system (35 fields/well) after 5 days of differentiation.
FIG. 4 provides a schematic representation of High Content Screening (HCS) validation of the 274 compounds identified through in silico screening using CG4 line. […] In addition, the whole short list of 160 non-toxic compounds were screened using the CG4 high content phenotypic assay to further confirm the data from primary screening and to potentially select additional compounds with pro-myelinating activities. From this screening of the short list, 49 hit compounds were identified that increase differentiation either of CG4 cells or primary OPCs (FIG. 6).

mouse cortical neurons = experiment: Morphological integrity evaluation, NMDA 8 μM (MAP2 neurite length and branching); type: cell-based; details: 3 h pre-treatment, NMDA 8 μM 24 h; Z>0.5 criteria
Description: Apart of viability/metabolic readout in NMDA-mediated neurotoxicity assay, a neuronal structural integrity was evaluated by MAP2 staining. Mouse cortical neurons (14 DIV) cultured in MW96 plates were fixed with 4% paraformaldehyde (PFA). Fixed cells were incubated with blocking solution (PBS 1×, donkey serum 5%, Triton 0.1%) for 1-hour, primary antibody (rabbit α-MAP2, 1:250, Millipore) was applied in the same solution overnight at +4° C. […] Nuclei were stained with 4′-6-diamidino-2-phenylindole (DAPI, Roche). Microscopy was performed using ArrayScan™XTI (ThermoFisher) imaging platform. 15 images per well were acquired and analyzed by CellProfiler. Total neurite length and the total number of non-trunk branches were analyzed. Total neurite length and the total number of branching were evaluated from 15 images/well, each compound or control was tested in triplicates. The total neurite length and total number of branches were converted to a standardized Z-score using formula: Xij=((Xij−μ)/σ), where xij is the raw measurement of the compound located in well (i, j), and μ and σ are, respectively, the mean and the standard deviation of all measurements of the plate.^31
The morphological integrity of mouse cortical neurons upon chronic 24 h NMDA (8 μM) exposure with compounds pre-treatment (3 h) in preventive regimen was evaluated. Control (basal), DMSO, N-acetylcysteine (NAC) served as positive controls, while staurosporine and NMDA were negative controls.

Compound	CG4 differentiation compared with 9cis-RA positive control [2]	preservation of neurite length and network integrity (branching) (mouse cortical neurons)	further results
C[C@H](Nc1ncnc2[nH]cnc12)c1cc2ccc(F)cc2nc1-c1ccccn1 [AMG-319]			neuroprotection of viability/metabolic activity against NMDA [1]: hit compounds
COCCOc1cnc2ccn([C@H](C)c3nnc4c(F)cc(-c5cnn(C)c5)cn34)c(=O)c2c1 [AMG-337]	promoting differentiation significantly higher than 9cis-RA positive control		
CN(C(=O)C(c1ccccc1)c1ccccc1)[C@H](CN1CC[C@H](O)C1)c1ccccc1 [ASIMADOLINE]	promoting differentiation significantly higher than 9cis-RA positive control		
CC(=O)Nc1cccc2c1c(Sc1ccc(Cl)cc1)c(C)n2CC(=O)O [AZD1981]			neuroprotection of viability/metabolic activity against NMDA [1]: hit compounds
CC[C@H](NC(=O)c1cc(-c2ccccc2)nc2ccccc12)c1ccccc1 [AZD-7624]		preserved both neurite length and the network integrity (branching)	
Cc1ccc(C(=O)NC2CC2)cc1-n1ncc(C(=O)c2cccc(C#N)c2)c1N [Acumapimod]	promoting differentiation significantly higher than 9cis-RA positive control		
C[N+](C)(C)CCOP(=O)([O-])OC[C@H](O)CO [CHOLINE ALFOSCERATE]	promoting differentiation significantly higher than 9cis-RA positive control		
CNC(=O)c1ccc(-c2cnc3ncc(Cc4ccc5ncccc5c4)n3n2)cc1F [Capmatinib]		preserved both neurite length and the network integrity (branching)	
Cc1cc(Oc2ccc3nc(COc4ccc(CC5SC(=O)NC5=O)cc4)n(C)c3c2)cc(C)c1N (centres unmarked) [Efatutazone hydrochloride, Efatutazone Hydrochloride]	promoting differentiation significantly higher than 9cis-RA positive control		
O=c1oc2c(O)c(O)cc3c(=O)oc4c(O)c(O)cc1c4c23 [Ellagic Acid]	promoting differentiation significantly higher than 9cis-RA positive control		
Cc1cc(Nc2cc(CN3CCOCC3)c3nc(C)c(Cc4ccc(Cl)cc4F)n3n2)n[nH]1 [GANDOTINIB, Gandotinib]	promoting differentiation significantly higher than 9cis-RA positive control		
Cc1cc(F)c(C(=O)Nc2cccc(-c3nncn3C(C)C)n2)cc1-n1cnc(C2CC2)c1 [GS-4997]		preserved both neurite length and the network integrity (branching)	
CN=C(NS(=O)(=O)c1ccc(Cl)cc1)N1C[C@H](c2ccccc2)C(c2ccc(Cl)cc2)=N1 [Ibipinabant]		preserved both neurite length and the network integrity (branching)	
CC(=O)N(C)c1cccc(-c2ccnc3c(C(=O)c4cccs4)cnn23)c1 [Indiplon]		preserved both neurite length and the network integrity (branching)	
N[C@@H](Cc1ccccc1)C(=O)O [L-Phenylalanine]		preserved both neurite length and the network integrity (branching)	
O=C1NC(=O)C(c2cnc3ccccn23)=C1c1cn2c3c(cc(F)cc13)CN(C(=O)N1CCCCC1)CC2 [LY-2090314]	promoting differentiation significantly higher than 9cis-RA positive control		

Compound	CG4 differentiation compared with 9cis-RA positive control [2]	preservation of neurite length and network integrity (branching) (mouse cortical neurons)	further results
O=C(O)[C@H](CC(=O)N1C[C@H]2CCCC[C@H]2C1)Cc1ccccc1 [Mitiglinide]		preserved both neurite length and the network integrity (branching)	
COc1ccsc1CNCC[C@@]1(c2ccccn2)CCOC2(CCCC2)C1 [Oliceridine]		preserved both neurite length and the network integrity (branching)	
CNC(=O)c1ccc2cc([C@@]3(O)CCn4cncc43)ccc2c1 [Orteronel]		preserved both neurite length and the network integrity (branching)	
CCCc1nc(C(F)(F)F)ccc1/C=C/C(=O)N[C@H](C)c1cc(F)c(NS(C)(=O)=O)c(F)c1 [PAC-14028]	promoting differentiation significantly higher than 9cis-RA positive control		
CNC(=O)c1cc(Oc2ccc(NC(=O)Nc3cc(C(C)(C)C)nn3-c3ccc4ncccc4c3)c(F)c2)ccn1 [REBASTINIB]	promoting differentiation significantly higher than 9cis-RA positive control		
CN1Cc2cc(Cl)ccc2-n2c(nnc2[C@H]2CC[C@H](Oc3ccccn3)CC2)C1 [RG7314]		preserved both neurite length and the network integrity (branching)	
O=C(O)CCn1c2c(c3ccccc31)C[C@H](NS(=O)(=O)c1ccc(F)cc1)CC2 [Ramatroban]		preserved both neurite length and the network integrity (branching)	
Cc1cncc(CN2CCC(=C3c4ccc(Cl)cc4CCc4cccnc43)CC2)c1 [Rupatadine]	promoting differentiation significantly higher than 9cis-RA positive control		
O=C(O)Cn1c2c(c3cc(F)ccc31)CN(C(=O)c1cccc3ccccc13)CC2 [SETIPIPRANT]	promoting differentiation significantly higher than 9cis-RA positive control		
C[C@]12CCC(=O)C[C@@H]1CC[C@@H]1[C@@H]2CC[C@]2(C)[C@@H](O)CC[C@@H]12 [STANOLONE]	promoting differentiation significantly higher than 9cis-RA positive control		
CC[C@H](CO)Nc1nc(NCc2ccccc2)c2ncn(C(C)C)c2n1 [Seliciclib]		preserved both neurite length and the network integrity (branching)	
CN(C(=O)c1ccc(F)cc1C(F)(F)F)C1CCN(c2nnc(-c3ccnn3C)c3ccccc23)CC1 [Taladegib]	promoting differentiation significantly higher than 9cis-RA positive control		
O=c1sn(-c2cccc3ccccc23)c(=O)n1Cc1ccccc1 [Tideglusib]		preserved both neurite length and the network integrity (branching)	
NC(=O)c1ccc(N(C(N)=O)c2c(F)cccc2F)nc1-c1ccc(F)cc1F [VX-702]		preserved both neurite length and the network integrity (branching)	
C[C@@H]1COC(Nc2ccc3ncnc(Nc4ccc(OCc5nccs5)c(Cl)c4)c3c2)=N1 [Varlitinib]		preserved both neurite length and the network integrity (branching)	
CC(C)(C)S(=O)(=O)N[C@H]1CC[C@H](C(=O)Nc2ccc(C(F)(F)F)cn2)CC1 [Velneperit]		preserved both neurite length and the network integrity (branching)	
